We go through eight compounds from ChEMBL document CHEMBL1128953, “Solid-phase synthesis of peptidosulfonamide containing peptides derived from Leu-enkephalin” (Bioorg Med Chem Lett, 1996).

Molecules are shown by their SMILES. Peptide text beside a SMILES is read from it. * marks the point of attachment. X1 = CC(C)C[C@@H](CS(N)(=O)=O)N* Bounds are passed on as bounds.

A short description of this experiment: Compound was tested for inhibition of anti-beta-endorphin monoclonal antibody by using ELISA assay. Format: functional.
As to `CC(C)C[C@H](NS(=O)(=O)C[C@H](Cc1ccccc1)NC(=O)CNC(=O)CNC(=O)[C@@H](N)Cc1ccc(O)cc1)C(N)=O`, half-maximal inhibition (IC50) required 0.9 µM.

On to `CC(C)C[C@H](NC(=O)[C@H](Cc1ccccc1)NC(=O)CNS(=O)(=O)CCNC(=O)[C@@H](N)Cc1ccc(O)cc1)C(=O)O`, for which the IC50 was greater than 200 µM.

Turning to `CC(C)C[C@H](NC(=O)[C@H](Cc1ccccc1)NS(=O)(=O)CCNC(=O)CNC(=O)[C@@H](N)Cc1ccc(O)cc1)C(N)=O`, the IC50 stood at 85 µM.

Take `CC(C)C[C@H](NC(=O)[C@H](Cc1ccccc1)NC(=O)CNS(=O)(=O)CCNC(=O)[C@@H](N)Cc1ccc(O)cc1)C(N)=O`: inhibition was half-maximal at 75 µM (IC50).

Compound `CC(C)C[C@H](NS(=O)(=O)C[C@H](Cc1ccccc1)NC(=O)CNC(=O)CNC(=O)[C@@H](N)Cc1ccc(O)cc1)C(=O)O` showed an IC50 of 5 µM.

In turn, `CC(C)C[C@H](NC(=O)[C@H](Cc1ccccc1)NS(=O)(=O)CCNC(=O)CNC(=O)[C@@H](N)Cc1ccc(O)cc1)C(=O)O` showed a half-maximal inhibitory concentration (IC50) greater than 200 µM.

Regarding `CC(C)C[C@@H](CS(N)(=O)=O)NC(=O)[C@H](Cc1ccccc1)NC(=O)CNC(=O)CNC(=O)[C@@H](N)Cc1ccc(O)cc1` (H-YGGF-X1), the half-inhibitory concentration (IC50) was 0.1 µM.

Consider `CC(C)C[C@H](NC(=O)[C@H](Cc1ccccc1)NC(=O)CNC(=O)CNC(=O)[C@@H](N)Cc1ccc(O)cc1)C(N)=O` [[LEU5]ENKEPHALIN], for which 0.07 µM corresponded to half-maximal inhibition (IC50).
